Source: US20210070748A1, “INHIBITORS OF BRUTONS TYROSINE KINASE” (Pharmacyclics LLC, priority 2015, published 2021)

Assays:
Type in all cases: biochemical
TEC = target: T1, TEC (Homo sapiens, UniProt P42680); assay: Inhibition of a panel of kinases, in vitro HotSpot kinase assay: TEC; conditions: D-compounds panel data; 1 μM ATP
T1 sequence (P42680 1-631): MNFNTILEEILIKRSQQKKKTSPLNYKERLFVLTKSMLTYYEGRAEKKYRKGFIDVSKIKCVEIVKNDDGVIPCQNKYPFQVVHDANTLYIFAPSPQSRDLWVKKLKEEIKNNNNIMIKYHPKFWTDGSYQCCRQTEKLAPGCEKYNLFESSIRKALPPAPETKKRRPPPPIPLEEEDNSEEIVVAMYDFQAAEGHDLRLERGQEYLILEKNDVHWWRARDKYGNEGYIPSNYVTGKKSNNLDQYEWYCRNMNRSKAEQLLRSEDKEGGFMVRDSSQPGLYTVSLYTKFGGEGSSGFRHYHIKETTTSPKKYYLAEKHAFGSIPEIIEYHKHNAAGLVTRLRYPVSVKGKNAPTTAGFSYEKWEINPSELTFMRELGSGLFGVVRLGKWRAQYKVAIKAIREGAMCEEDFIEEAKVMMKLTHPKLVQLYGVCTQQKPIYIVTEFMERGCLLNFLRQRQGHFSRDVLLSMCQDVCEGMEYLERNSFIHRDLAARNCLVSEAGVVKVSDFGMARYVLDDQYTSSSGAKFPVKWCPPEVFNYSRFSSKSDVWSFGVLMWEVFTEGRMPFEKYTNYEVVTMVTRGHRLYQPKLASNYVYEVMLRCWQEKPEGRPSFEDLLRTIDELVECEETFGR
Description: (§1) The degree of inhibition of a panel of kinases is determined using the in vitro HotSpot kinase assay (purified enzymes, ^33P-ATP, an appropriate substrate and 1 μM ATP).

LCK = LCK (Homo sapiens, UniProt P06239); assay: Inhibition of a panel of kinases, in vitro HotSpot kinase assay: LCK; conditions: D-compounds panel data; 1 μM ATP; read-out: IC50 LCK
Chain of LCK (P06239 whole entry): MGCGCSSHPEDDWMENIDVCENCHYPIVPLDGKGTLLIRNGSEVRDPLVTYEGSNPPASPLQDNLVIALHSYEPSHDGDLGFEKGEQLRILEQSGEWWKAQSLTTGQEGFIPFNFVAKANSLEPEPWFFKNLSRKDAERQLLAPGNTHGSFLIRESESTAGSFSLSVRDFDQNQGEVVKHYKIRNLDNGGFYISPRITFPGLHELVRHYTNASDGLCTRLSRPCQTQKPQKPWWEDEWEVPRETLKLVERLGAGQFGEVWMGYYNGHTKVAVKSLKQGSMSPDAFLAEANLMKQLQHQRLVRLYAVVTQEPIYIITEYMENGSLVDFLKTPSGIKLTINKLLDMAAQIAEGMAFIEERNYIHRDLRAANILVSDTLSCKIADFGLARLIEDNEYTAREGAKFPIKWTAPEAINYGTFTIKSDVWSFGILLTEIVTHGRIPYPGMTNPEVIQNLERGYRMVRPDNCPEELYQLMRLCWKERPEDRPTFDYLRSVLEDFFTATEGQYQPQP

SRC = SRC (Homo sapiens, UniProt P12931); assay: Inhibition of a panel of kinases, in vitro HotSpot kinase assay: SRC; conditions: D-compounds panel data; 1 μM ATP
Chain of SRC (P12931 whole entry): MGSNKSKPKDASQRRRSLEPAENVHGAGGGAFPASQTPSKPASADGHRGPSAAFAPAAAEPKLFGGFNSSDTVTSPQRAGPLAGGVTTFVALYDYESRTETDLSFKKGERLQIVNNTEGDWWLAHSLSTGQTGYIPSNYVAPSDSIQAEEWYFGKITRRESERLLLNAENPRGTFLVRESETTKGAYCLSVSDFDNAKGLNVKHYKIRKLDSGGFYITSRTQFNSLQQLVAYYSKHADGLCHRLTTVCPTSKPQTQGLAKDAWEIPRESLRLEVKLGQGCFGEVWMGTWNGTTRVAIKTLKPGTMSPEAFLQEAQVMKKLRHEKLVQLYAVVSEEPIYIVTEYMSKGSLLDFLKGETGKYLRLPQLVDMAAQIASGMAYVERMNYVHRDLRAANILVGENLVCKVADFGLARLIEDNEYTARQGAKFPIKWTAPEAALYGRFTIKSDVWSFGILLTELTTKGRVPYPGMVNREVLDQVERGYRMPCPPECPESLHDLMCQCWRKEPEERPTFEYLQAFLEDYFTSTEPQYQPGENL
Description: as §1

ITK = target: T2, ITK (Homo sapiens, UniProt Q08881); assay: Inhibition of a panel of kinases, in vitro HotSpot kinase assay: ITK; conditions: D-compounds panel data; 1 μM ATP
T2 sequence (Q08881 1-620): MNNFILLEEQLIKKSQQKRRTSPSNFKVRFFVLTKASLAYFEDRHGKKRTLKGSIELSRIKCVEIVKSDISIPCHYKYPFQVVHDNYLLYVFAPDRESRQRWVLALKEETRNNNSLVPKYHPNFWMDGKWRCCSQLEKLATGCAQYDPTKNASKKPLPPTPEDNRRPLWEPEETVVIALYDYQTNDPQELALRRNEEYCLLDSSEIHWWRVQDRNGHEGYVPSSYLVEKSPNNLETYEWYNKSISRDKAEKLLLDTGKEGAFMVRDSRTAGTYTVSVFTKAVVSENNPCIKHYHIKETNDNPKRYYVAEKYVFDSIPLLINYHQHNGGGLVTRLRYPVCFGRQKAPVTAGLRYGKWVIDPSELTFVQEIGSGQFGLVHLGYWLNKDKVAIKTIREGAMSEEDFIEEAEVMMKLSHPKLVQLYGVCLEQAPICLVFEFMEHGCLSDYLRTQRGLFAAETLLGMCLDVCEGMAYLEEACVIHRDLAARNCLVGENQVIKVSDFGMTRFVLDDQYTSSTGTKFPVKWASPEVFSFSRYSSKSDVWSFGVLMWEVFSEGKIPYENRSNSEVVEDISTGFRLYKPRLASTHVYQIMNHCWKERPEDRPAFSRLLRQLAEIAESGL
Description: as §1

BTK-WT = target: T3, BTK-WT (Homo sapiens, UniProt Q06187); assay: Btk in vitro inhibitory activity (one of Method A TR-FRET, Method B electrophoretic mobility shift, Method C radiometric filter binding); conditions: D-compounds panel data; read-out: IC50 BTK-WT
T3 construct: purified from insect cells as a full-length construct containing an N-terminal 6X-His tag; His6 (N); made in house; host or cells: insect cells (baculovirus Sf21 in Method B)
T3 sequence (Q06187 whole entry): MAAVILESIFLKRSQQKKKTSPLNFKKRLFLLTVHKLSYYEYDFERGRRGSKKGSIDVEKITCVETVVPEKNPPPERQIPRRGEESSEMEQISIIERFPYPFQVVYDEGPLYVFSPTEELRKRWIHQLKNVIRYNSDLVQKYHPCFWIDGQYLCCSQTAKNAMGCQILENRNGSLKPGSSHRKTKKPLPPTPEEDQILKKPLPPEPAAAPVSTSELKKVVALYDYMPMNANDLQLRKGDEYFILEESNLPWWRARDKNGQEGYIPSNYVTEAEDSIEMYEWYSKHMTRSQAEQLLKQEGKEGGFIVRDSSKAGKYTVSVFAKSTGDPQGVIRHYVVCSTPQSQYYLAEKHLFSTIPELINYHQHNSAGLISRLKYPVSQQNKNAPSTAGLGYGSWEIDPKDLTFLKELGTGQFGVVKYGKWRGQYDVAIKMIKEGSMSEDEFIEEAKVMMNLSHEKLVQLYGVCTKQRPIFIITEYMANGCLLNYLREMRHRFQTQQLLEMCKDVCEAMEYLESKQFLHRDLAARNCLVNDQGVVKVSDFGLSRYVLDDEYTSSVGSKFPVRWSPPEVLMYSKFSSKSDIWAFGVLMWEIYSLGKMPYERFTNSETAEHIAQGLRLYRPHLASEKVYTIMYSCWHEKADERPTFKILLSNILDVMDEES

SMILES	IC50 (TEC) [nM]	IC50 (LCK) [nM]	IC50 (SRC) [nM]	IC50 (ITK) [nM]	IC50 (BTK-WT) [nM]
C[C@@H]1[C@H](NC(=O)c2ccc(C3CC3)cc2)CCCN1c1cnc(C(N)=O)c(Nc2cnn(CC#N)c2)n1 [Example D-287, 3-{[1-(cyanomethyl)-1H-pyrazol-4-yl]amino}-5-[(2R,3R)-3-(4-cyclopropylbenzamido)-2-methylpiperidin-1-yl]pyrazine-2-carboxamide]	≤ 10	100 to 1000	100 to 1000	100 to 1000	≤ 10
C[C@@H]1[C@H](NC(=O)c2ccc(C3CC3)cc2)CCCN1c1cnc(C(N)=O)c(Nc2cnn(C3CCN(C(=O)C4CC4)CC3)c2)n1 [Example D-288, 3-{[1-(1-cyclopropanecarbonylpiperidin-4-yl)-1H-pyrazol-4-yl]amino}-5-[(2R,3R)-3-(4-cyclopropylbenzamido)-2-methylpiperidin-1-yl]pyrazine-2-carboxamide]	≤ 10	100 to 1000	10 to 100	100 to 1000	≤ 10
C[C@@H]1[C@H](NC(=O)c2ccc(C3CC3)cc2)CCCN1c1cnc(C(N)=O)c(Nc2cnn(C3CCN(C(=O)C4(C)COC4)CC3)c2)n1 [Example D-289, 5-[(2R,3R)-3-(4-cyclopropylbenzamido)-2-methylpiperidin-1-yl]-3-({1-[1-(3-methyloxetane-3-carbonyl)piperidin-4-yl]-1H-pyrazol-4-yl}amino)pyrazine-2-carboxamide]	≤ 10	10 to 100	≤ 10	10 to 100	≤ 10
C[C@@H]1[C@H](NC(=O)c2ccc(C3CC3)cc2)CCCN1c1cnc(C(N)=O)c(Nc2cnn(C)c2F)n1 [Example D-290, 5-[(2R,3R)-3-(4-cyclopropylbenzamido)-2-methylpiperidin-1-yl]-3-[(5-fluoro-1-methyl-1H-pyrazol-4-yl)amino]pyrazine-2-carboxamide]	100 to 1000	1000 to 10000	1000 to 10000	> 10000	10 to 100
C[C@@H]1[C@H](NC(=O)c2ccc(C(C)(C)C)cc2)CCCN1c1cnc(C(N)=O)c(Nc2ccc(OC3CCN(C)CC3)cc2)n1 [Example D-291, 5-[(2R,3R)-3-(4-tert-butylbenzamido)-2-methylpiperidin-1-yl]-3-({4-[(1-methylpiperidin-4-yl)oxy]phenyl}amino)pyrazine-2-carboxamide]	10 to 100	10 to 100	10 to 100	10 to 100	≤ 10
C[C@@H]1[C@H](NC(=O)c2ccc(C(C)(C)C#N)cc2)CCCN1c1cnc(C(N)=O)c(Nc2ccc(OC3CCN(C)CC3)cc2)n1 [Example D-292, 5-[(2R,3R)-3-[4-(1-cyano-1-methylethyl)benzamido]-2-methylpiperidin-1-yl]-3-({4-[(1-methylpiperidin-4-yl)oxy]phenyl}amino)pyrazine-2-carboxamide]	≤ 10	10 to 100	10 to 100	10 to 100	≤ 10
C[C@@H]1[C@H](NC(=O)c2ccc(C3CC3)cc2)CCCN1c1cnc(C(N)=O)c(Nc2cnn(C3CCN(CC(F)(F)F)CC3)c2)n1 [Example D-293, 5-[(2R,3R)-3-(4-cyclopropylbenzamido)-2-methylpiperidin-1-yl]-3-({1-[1-(2,2,2-trifluoroethyl)piperidin-4-yl]-1H-pyrazol-4-yl}amino)pyrazine-2-carboxamide]	10 to 100	> 10000	10 to 100	1000 to 10000	≤ 10
C[C@@H]1[C@H](NC(=O)c2ccc(C3CC3)nc2)CCCN1c1cnc(C(N)=O)c(Nc2ccc(OC3CCN(C)CC3)cc2)n1 [Example D-294, 5-[(2R,3R)-3-(6-cyclopropylpyridine-3-amido)-2-methylpiperidin-1-yl]-3-({4-[(1-methylpiperidin-4-yl)oxy]phenyl}amino)pyrazine-2-carboxamide]	≤ 10	10 to 100	10 to 100	10 to 100	≤ 10
CC(=O)N1CCN(c2ccc(Nc3nc(N4CCC[C@@H](NC(=O)c5ccc(C6CC6)cc5)[C@H]4C)cnc3C(N)=O)cc2)CC1 [Example D-295, 3-{[4-(4-acetylpiperazin-1-yl)phenyl]amino}-5-[(2R,3R)-3-(4-cyclopropylbenzamido)-2-methylpiperidin-1-yl]pyrazine-2-carboxamide]	≤ 10	10 to 100	10 to 100	100 to 1000	≤ 10
CC(=O)N1CCC(c2ccc(Nc3nc(N4CCC[C@@H](NC(=O)c5ccc(C6CC6)cc5)[C@H]4C)cnc3C(N)=O)cc2)CC1 [Example D-296, 3-{[4-(1-acetylpiperidin-4-yl)phenyl]amino}-5-[(2R,3R)-3-(4-cyclopropylbenzamido)-2-methylpiperidin-1-yl]pyrazine-2-carboxamide]	10 to 100	100 to 1000	10 to 100	100 to 1000	≤ 10
C[C@@H]1[C@H](NC(=O)c2ccc(C3CC3)cn2)CCCN1c1cnc(C(N)=O)c(Nc2ccc(OC3CCN(C)CC3)cc2)n1 [Example D-297, 5-[(2R,3R)-3-(5-cyclopropylpyridine-2-amido)-2-methylpiperidin-1-yl]-3-({4-[(1-methylpiperidin-4-yl)oxy]phenyl}amino)pyrazine-2-carboxamide]	≤ 10	10 to 100	10 to 100	10 to 100	≤ 10
C[C@@H]1[C@H](NC(=O)c2ccc(C(C)(C)O)cc2)CCCN1c1nnc(C(N)=O)c(Nc2cnn(C)c2)n1 [Example D-298, 3-[(2R,3R)-3-[4-(2-hydroxypropan-2-yl)benzamido]-2-methylpiperidin-1-yl]-5-[(1-methyl-1H-pyrazol-4-yl)amino]-1,2,4-triazine-6-carboxamide]	≤ 10	10 to 100	10 to 100	10 to 100	≤ 10
CCOCCOc1ccc(Nc2nc(N3CCC[C@@H](NC(=O)c4ccc(C5CC5)cc4)[C@H]3C)cnc2C(N)=O)cc1 [Example D-299, 5-[(2R,3R)-3-(4-cyclopropylbenzamido)-2-methylpiperidin-1-yl]-3-{[4-(2-ethoxyethoxy)phenyl]amino}pyrazine-2-carboxamide]	10 to 100	> 10000	1000 to 10000	> 10000	10 to 100
C[C@@H]1[C@H](NC(=O)c2ccc(C3CC3)cc2)CCCN1c1cnc(C(N)=O)c(NCC2=CCN(C)CC2)n1 [Example D-300, 5-[(2R,3R)-3-(4-cyclopropylbenzamido)-2-methylpiperidin-1-yl]-3-{[(1-methyl-1,2,3,6-tetrahydropyridin-4-yl)methyl]amino}pyrazine-2-carboxamide]	> 10000	> 10000	> 10000	> 10000	> 10000
C[C@@H]1[C@H](NC(=O)c2ccc(C3CC3)cc2)CCCN1c1cnc(C(N)=O)c(Nc2ccc(C3CCN(C)CC3)cc2)n1 [Example D-301, 5-[(2R,3R)-3-(4-cyclopropylbenzamido)-2-methylpiperidin-1-yl]-3-{[4-(1-methylpiperidin-4-yl)phenyl]amino}pyrazine-2-carboxamide]	10 to 100	100 to 1000	100 to 1000	100 to 1000	≤ 10
C[C@@H]1[C@H](NC(=O)c2ccc(C(C)(C)O)cc2F)CCCN1c1cnc(C(N)=O)c(Nc2cnn(C)c2)n1 [Example D-302, 5-[(2R,3R)-3-[2-fluoro-4-(2-hydroxypropan-2-yl)benzamido]-2-methylpiperidin-1-yl]-3-[(1-methyl-1H-pyrazol-4-yl)amino]pyrazine-2-carboxamide]	≤ 10	10 to 100	10 to 100	10 to 100	≤ 10
